In patent US8188268B2, “Porous crystalline saccharide, its preparation and uses” (Kabushiki Kaisha Hayashibara Seibutsu Kagaku Kenkyujo, priority 2005, dated 2012):
“And” between values parts separate entries of the source, which are not always exact repeats. Identical values can stand only once. Like-named read-outs stand apart in the source and are kept apart here.

Legend:
[1] = Pore size distribution by the mercury filling method; type: physicochemical; details: for Median pore diameter: control maltose values are from space between particles, not pores
[2] = Preservation test of flax seed oil powder, volatile aldehydes by GC; type: physicochemical; details: flax seed oil powder with this base
Procedure: As disclosed in Japanese Patent Kokai No. 123,195/2001 applied for by the same applicant of the present invention, it has been known that trehalose inhibits the decomposition of fatty acids and the formation of volatile aldehydes. Therefore, a preservation test of the flax seed oil powders were carried out according to the following method by using the flax seed oil powders prepared in Example 9 by using the porous anhydrous crystalline trehalose of the present invention or the control anhydrous crystalline trehalose as powderizing bases, and the amounts of the formed volatile aldehydes were compared.
One gram each of the flax seed oil powder was put into two 20 ml-vial, sealed with Butyl-rubber stopper, and then preserved in an incubator at 40° C. for three weeks. The vial was collected at the point of before the preservation or after preserving for 21 days and heated at 80° C. for 5 min. Then, 2 ml of vapor phase gas in the vial was directly subjected to gas chromatography (GC) analysis to determine the amount of volatile aldehydes. GC analysis was carried out according to the following conditions.
• Gas chromatograph: GC-17B, produced by Shimadzu Corporation, Kyoto, Japan; • Column: TC-FFAP capillary column (ID 0.52 mm×30 m), produced by GL Sciences Inc., Tokyo, Japan; • Column temperature: 40° C. to 100° C.

[3] = Specific surface area by nitrogen adsorption isotherms (BET); type: physicochemical; details: for Specific surface area: nitrogen adsorption isotherms, BET
Procedure: Specific surface area of the porous anhydrous crystalline trehalose was measured by the nitrogen adsorption isotherms using “MODEL ASAP-2400”, a specific surface area/pore size distribution analyzer commercialized by Micromeritics, Georgia, USA. […] The result was analyzed by the BET (Brunnauer, Emmet, and Teller) method. The commercial anhydrous crystalline trehalose, a reagent grade, commercialized by Hayashibara Biochemical Laboratories Inc., Okayama, Japan, was used as a control. […] Further, those pore size distribution charts are in FIG. 19. […] The results of the analysis on the specific surface area and the pore size distribution are summarized in Table 7, and the pore size distribution chart was in FIG. 24. As a control, “MALTOSE OM”, a hydrous crystalline maltose product with maltose purity of 98% or higher, produced by Hayashibara Co., Ltd., Okayama, Japan, was used.

[4] = Flax seed oil powder: keeping of powdery form; type: physicochemical; details: 1 part flax seed oil + 10 parts saccharide as base
Procedure: One part by weight of flax seed oil was admixed with 10 parts by weight of the porous anhydrous crystalline trehalose, prepared by treating at 70° C. for 60 min in Example 1, and then the mixture was kneaded to make into a powdery product. In the same manner, powdery products were prepared by using “TREHA®”, hydrous crystalline trehalose commercialized by Hayashibara Shoji Inc., Okayama, Japan, and anhydrous crystalline trehalose, prepared from hydrous crystalline trehalose by drying in vacuo at a high temperature according to the conventional method, as controls. […] The flaxseed oil powder can be preferably used as a supplement.

[5] = Dissolution test against cold water at 10° C.; type: physicochemical; details: for Time required for dissolution, No. 1 / Time required for dissolution, No. 2 / Time required for dissolution, No. 3 / Time required for dissolution, No. 4 / Time required for dissolution, No. 5 / Time required for dissolution, Average: 20 ml water 10° C., about 300 rpm, 0.5 g trehalose or 0.2 g maltose; for Time required for dissolution, Average: average of 5
Procedure: A dissolution test against cold water at 10° C. was carried out using the porous anhydrous crystalline trehalose prepared by treating at 70° C. for 60 min in Example 1, the porous anhydrous crystalline maltose prepared by the method in Example 3, and the porous hydrous crystalline maltose prepared by the method in Example 5, as samples. The results were compared with those of the controls, anhydrous crystalline trehalose, hydrous crystalline trehalose, and hydrous crystalline maltose.
Twenty milliliters of 10° C.-cold water was placed in a test tube with an internal diameter of 18 mm, and then stirred using a stirring bar. A crystalline saccharide sample was put into the test tube, and the time required for the complete dissolution (for the disappearance of precipitate particles) was measured. The amount of samples was set to be 0.5 g in the case of trehalose and to be 0.2 g in the case of maltose, and the stirring rate was set to be about 300 rpm in any case. The measurement of time for dissolution under the above conditions was carried out 5-times at each sample.

[6] = Oil-keeping ability with salad oil; type: physicochemical; set-up: key to Oil-keeping ability: (5 g salad oil / g saccharide added at endpoint) x 100; details: for Oil-keeping ability: (5 g salad oil / amount of added saccharide) x 100
Procedure: The oil-keeping ability of each crystalline saccharide was measured using the porous anhydrous crystalline trehalose prepared by treating at 70° C. for 60 min in Example 1, the control hydrous crystalline trehalose, and the control anhydrous crystalline trehalose as crystalline trehalose samples; and the porous anhydrous crystalline maltose prepared by the method in Example 3, the control hydrous crystalline β-maltose, and the control anhydrous crystalline α-maltose, and the control anhydrous crystalline β-maltose as crystalline maltose samples, and the results were compared.
The measurement of the oil-keeping ability of the crystalline saccharide was carried out according to the method disclosed in Japanese Patent Kokai No. 31,650/84. Five grams of “NISSHIN SALAD OIL”, a salad oil commercialized by Nisshin OiliO Group, Ltd., Tokyo, Japan, was placed in a 50-ml plastic container, and then gradually admixed with each powdery crystalline saccharide with stirring. […] When the amount of the mixed saccharide is further increased, the agglomerate increase in solidity and then loosen. The point that the agglomerate is loosened is estimated to be the endpoint and the oil-keeping ability was calculated using the following formula. Oil-Keeping Ability =(The amount of salad oil(5 g)/the amount of added PCS*)×100 *: Powdery crystalline saccharide tm Formula 1

[7] = Crystal moisture content (Karl Fischer) on moisture absorption and drying; type: physicochemical
Procedure: Hydrous crystalline saccharides were prepared from the respective porous anhydrous crystalline saccharide using the porous anhydrous crystalline trehalose, obtained by treating at 70° C. for 60 min in Example 1, and the porous anhydrous crystalline maltose, obtained by treating at 70° C. for 480 min in Example 3, as materials. About 50 g of the porous anhydrous crystalline saccharide and about 150 ml of deionized water were placed in respective container. Then, the both open containers were placed in the same closed vessel and leaved to stand at 27° C. for two days. By the treatment, the anhydrous crystalline saccharide was allowed to absorb moisture and converted into hydrous crystal. The resulting hydrous crystal was dried in a drying machine at 50° C. for one hour to remove excess moisture. The moisture contents of the porous anhydrous crystalline trehalose and the porous anhydrous crystalline maltose before and after the treatment to absorb moisture and after drying are in Table 6. The moisture content of crystals was measured by the conventional Karl Fischer's method.

[8] = background art; cited from earlier work
[9] = listed as control anhydrous crystalline trehalose
[10] = 21 days after preservation at 40° C.
[11] = 21 days after preservation at 40° C., listed as Porous anhydrous crystalline trehalose (Present invention)
[12] = before preservation, listed as Porous anhydrous crystalline trehalose (Present invention)
[13] = listed as Porous anhydrous crystalline trehalose (Present invention)

In the case of `OC[C@H]1O[C@H](O[C@H]2O[C@H](CO)[C@@H](O)[C@H](O)[C@H]2O)[C@H](O)[C@@H](O)[C@@H]1O` [Anhydrous crystalline trehalose (Control)] [α-D-glucosyl α-D-glucoside, reference compound], the Intrusion volume [1] is reported as 0.03 mL/g, the Mode pore diameter [1] is reported as 0.46 μm and the Median pore diameter [1] is reported as 0.40 μm. For the same compound, the Intrusion volume [1, 9] was 0.03 mL/g, the “2,4-Decadienal” value [2, 10] was 7.01 μg/ml-vapor phase gas and the 2-Heptenal [2, 10] was 0.01 μg/ml-vapor phase gas. The 2-Hexenal [2, 10] was 0.02 μg/ml-vapor phase gas, the 2-Nonenal [2, 10] was 0.27 μg/ml-vapor phase gas and the 2-Octenal [2, 10] was 0.66 μg/ml-vapor phase gas. It also gave an Acetoaldehyde [2, 10] of 8.99 μg/ml-vapor phase gas, a Butanal [2, 10] of 0.93 μg/ml-vapor phase gas and a Hexanal [2, 10] of 0.16 μg/ml-vapor phase gas. The Pentanal [2, 10] was 0.55 μg/ml-vapor phase gas, the Propanal [2, 10] was 12.98 μg/ml-vapor phase gas and the Total aldehydes [2, 10] was 31.58 μg/ml-vapor phase gas. For the same compound, the “2,4-Decadienal” value ([2]; before preservation) was 6.77 μg/ml-vapor phase gas, the 2-Heptenal ([2]; before preservation) was 0.00 μg/ml-vapor phase gas and the 2-Hexenal ([2]; before preservation) was 0.00 μg/ml-vapor phase gas. The 2-Nonenal ([2]; before preservation) was 0.01 μg/ml-vapor phase gas, the 2-Octenal ([2]; before preservation) was 0.23 μg/ml-vapor phase gas and the Acetoaldehyde ([2]; before preservation) was 8.91 μg/ml-vapor phase gas. The Butanal ([2]; before preservation) was 0.66 μg/ml-vapor phase gas, the Hexanal ([2]; before preservation) was 0.07 μg/ml-vapor phase gas and the Pentanal ([2]; before preservation) was 0.13 μg/ml-vapor phase gas. It also gave a Propanal ([2]; before preservation) of 10.24 μg/ml-vapor phase gas, a Total aldehydes ([2]; before preservation) of 27.02 μg/ml-vapor phase gas and a Specific surface area ([3]; listed as Anhydrous crystalline trehalose (Conventional product, Control)) of 0.465 m^2/g. For the same compound, the “Powdery form of flax seed oil powder” value [4, 9] was “could not keep powdery forms”, the “Time required for dissolution, No. 1” value [5] was 90 s and the “Time required for dissolution, No. 2” value [5] was 87 s. For the same compound, the “Time required for dissolution, No. 3” value [5] was 96 s, the “Time required for dissolution, No. 4” value [5] was 91 s and the “Time required for dissolution, No. 5” value [5] was 86 s. For the same compound, the “Time required for dissolution, Average” value [5] was 90 s, the Oil-keeping ability [6] was 38.5 and the Oil-keeping ability [6, 9] was 38.5.

For `OC[C@H]1O[C@H](O[C@H]2O[C@H](CO)[C@@H](O)[C@H](O)[C@H]2O)[C@H](O)[C@@H](O)[C@@H]1O` [Porous anhydrous crystalline trehalose (treated at 70° C. fo] [α-D-glucosyl α-D-glucoside], the Intrusion volume [1] was 0.28 mL/g, the Mode pore diameter [1] was 0.20 μm and the “Pore diameter of clear peak in pore size distribution chart” value [1] was “less than 5 μm”. The “Remarks (pores)” value [1] was “Having clear pores”, the Median pore diameter [1] was 0.29 μm and the Intrusion volume ([1]; listed as porous anhydrous crystalline trehalose) was 0.22 mL/g and 0.28 mL/g. The 2-Heptenal [2, 10] was 0.01 μg/ml-vapor phase gas, the “2,4-Decadienal” value [2, 11] was 4.01 μg/ml-vapor phase gas and the 2-Hexenal [2, 11] was 0.01 μg/ml-vapor phase gas. It also gave a 2-Nonenal [2, 11] of 0.19 μg/ml-vapor phase gas, a 2-Octenal [2, 11] of 0.43 μg/ml-vapor phase gas and an Acetoaldehyde [2, 11] of 3.77 μg/ml-vapor phase gas. For the same compound, the Butanal [2, 11] was 0.63 μg/ml-vapor phase gas, the Hexanal [2, 11] was 0.11 μg/ml-vapor phase gas and the Pentanal [2, 11] was 0.33 μg/ml-vapor phase gas. It also gave a Propanal [2, 11] of 8.66 μg/ml-vapor phase gas, a Total aldehydes [2, 11] of 18.15 μg/ml-vapor phase gas and a 2-Heptenal ([2]; before preservation) of 0.00 μg/ml-vapor phase gas. For the same compound, the 2-Hexenal ([2]; before preservation) was 0.00 μg/ml-vapor phase gas, the “2,4-Decadienal” value [2, 12] was 3.66 μg/ml-vapor phase gas and the 2-Nonenal [2, 12] was 0.00 μg/ml-vapor phase gas. For the same compound, the 2-Octenal [2, 12] was 0.11 μg/ml-vapor phase gas, the Acetoaldehyde [2, 12] was 4.13 μg/ml-vapor phase gas and the Butanal [2, 12] was 0.43 μg/ml-vapor phase gas. It also gave a Hexanal [2, 12] of 0.00 μg/ml-vapor phase gas, a Pentanal [2, 12] of 0.09 μg/ml-vapor phase gas and a Propanal [2, 12] of 5.77 μg/ml-vapor phase gas. The Total aldehydes [2, 12] was 14.19 μg/ml-vapor phase gas, the “Crystal moisture content, after drying” value ([7]; after moisture absorption and drying at 50° C. for one hour) was 9.66 %, w/w and the “Crystal moisture content, before treatment” value ([7]; before moisture absorption) was 0.24 %, w/w. For the same compound, the “Crystal moisture content, after treatment” value ([7]; closed vessel with water, 27° C., two days) was 10.32 %, w/w, the “Specific surface area relative to control crystalline saccharide” value ([3]; compared with control(s)) was no less than 5 folds and the Specific surface area [3] was 2.513 m^2/g. The “Powdery form of flax seed oil powder” value [4] was “kept good powdery form”, the “Time required for dissolution, No. 1” value [5, 13] was 29 s and the “Time required for dissolution, No. 2” value [5, 13] was 34 s. The “Time required for dissolution, No. 3” value [5, 13] was 40 s, the “Time required for dissolution, No. 4” value [5, 13] was 29 s and the “Time required for dissolution, No. 5” value [5, 13] was 31 s. The “Time required for dissolution, Average” value [5, 13] was 33 s, the “Dissolution in cold water in comparison with controls” value ([5]; cold water 10° C.) was “rapidly dissolved in cold water” and the Oil-keeping ability [6] was 62.5. The Oil-keeping ability [6, 13] was 62.5 and the “Oil-keeping ability relative to control” value ([6]; compared with control crystalline saccharide) was “about 1.6 folds”.

For `OC[C@H]1O[C@@](CO)(O[C@H]2O[C@H](CO)[C@@H](O)[C@H](O)[C@H]2O)[C@@H](O)[C@@H]1O` [granulated sugar, sucrose], the Specific surface area [8] is listed as “about 0.1 m^2/g”.
